Like-named read-outs stand apart in the source and are kept apart here.
Tests used:
[1] = system: CaCo2; experiment: MTS cell viability assay; type: cell-based, human
Procedure, shortened: (§1)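 Viability read by MTS tetrazolium conversion (1 h, absorbance 490 nm) after 24 h or 96 h exposure to compound versus 0.2% DMSO vehicle, triplicate wells. Human (A549, CaCo2, HepG2) and murine NSCLC monolayers cultured in DMEM, 10% FCS, 37°C.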

[2] = system: A549; experiment: MTS cell viability assay; type: cell-based, human
Procedure, shortened: as §1

[3] = system: HepG2; experiment: MTS cell viability assay; type: cell-based, human
Procedure, shortened: as §1

[4] = system: GammaA3; experiment: MTS cell viability assay; type: cell-based, mouse
Procedure, shortened: as §1

[5] = system: GammaD12; experiment: MTS cell viability assay; type: cell-based, mouse
Procedure, shortened: as §1

[6] = system: BetaD5; experiment: MTS cell viability assay; type: cell-based, mouse
Procedure, shortened: as §1

[7] = system: A2C12; experiment: MTS cell viability assay; type: cell-based, mouse
Procedure, shortened: as §1

[8] = system: CaCo2; experiment: Cell cycle analysis by flow cytometry; type: cell-based, human; conditions: IC50 concentration, 96 h
Procedure, shortened: (§2)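 Cells were harvested with trypsin, washed in PBS and resuspended in kit buffer, then centrifuged and taken up in solution A for 10 min at room temperature. Solution B was added, then solution C, with incubation at 4°C in the dark before flow cytometric DNA-content analysis.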

[9] = system: A549; experiment: Cell cycle analysis by flow cytometry; type: cell-based, human; conditions: IC50 concentration, 96 h
Procedure, shortened: as §2

[10] = system: HepG2; experiment: Cell cycle analysis by flow cytometry; type: cell-based, human; conditions: IC50 concentration, 96 h
Procedure, shortened: as §2

[11] = system: all tested cell lines; experiment: Caspase-Glo 3/7 activity assay, all tested cell lines; type: cell-based; conditions: IC50 concentration, 24 h; vs vehicle
Method: According to instructions, Caspase-Glo® 3/7 assay (Promega GmbH, Mannheim, Germany) was used for monitoring caspase activity. Briefly, the same volume Caspase-Glo reagent as culture medium was added and incubated 1 h at room temperature. Luminescence was read with a Victor3 Wallac 1420 Multilabel counter (PerkinElmer, Rodgau, Germany). Background absorbance (medium only) was subtracted and the data given as percent of vehicle controls.

[12] = system: A2C12; experiment: Cell cycle analysis by flow cytometry; type: cell-based, mouse; conditions: IC50 concentration, 96 h
Procedure, shortened: as §2

[13] = system: HepG2; experiment: Western blot, semi-quantitative protein expression; type: cell-based, human
Method: For the Western Blot analysis, cells were rinsed and lysed as previously described. An amount of 25 µg protein was used for SDS-PAGE. Antibodies for c-Abl (sc-131), Actin (sc-1616), Cdc2-p34 (sc-8395), EPS15 (sc-1840), FAK (sc-558), c-Fos (sc-52), p38 (sc-7972), p53 (sc-6243) and STAT5 (sc-835x) were obtained from Santa Cruz (Santa Cruz Biotechnology, Heidelberg, Germany), while c-Src (2109) and phospho-Src Y416 (2101) were purchased from Cell Signaling (Cell Signaling Technology, Frankfurt a. M., Germany). The EGFR (06-847), phospho-EGFR Y992 (07-821) and phospho-EGFR Y1045 (04-284) stem from Upstate (Upstate, Schwalbach, Germany) and the hnRNP-K (A300-676A) from Bethyl Labs (Bethyl Laboratories, Montgomery, Texas, USA). Finally p73 (IMG-246) was supplied by Imgenex (Imgenex, Hamburg, Germany). Depending on the primary antibody the secondary antibodies were either horseradish peroxidase-conjugated anti-mouse (AP 160P), anti-rabbit (AP 132P) or anti-sheep (AP 147P) (Chemicon, Schwalbach, Germany).
Semi-quantitative analysis were carried out with Kodak 1D Image Analysis Software in reference to the vehicle treated control cells (see supplementary table S7).

[14] = system: murine and human cell lines; experiment: Whole genome expression analysis, statements over several cell lines; type: cell-based
Method: The cells were harvested and RNA was isolated using RNeasy Mini Kit (Qiagen, Hilden, Germany) according to the instructions of the manufacturer. The isolated RNA (250 ng) was processed further using standard protocols as described recently with the exception of the 3′ IVT Express Kit (Affymetrix, High Wycombe, UK) that was utilized according to instructions. Quality control of cRNA was done with the Agilent 2100 Bioanalyzer (Agilent Tech according to manufacturer's protocols. Following fragmentation, cRNA of each sample was hybridized to Affymetrix GeneChip® Mouse Genome 430 2.0 or Human Genome U133 Plus 2.0 and scanned with an Affymetrix 3000 7G scanner.
The resultant data was normalized by Probe Logarithmic Intensity Error Estimation (PLIER) algorithm. Statistical analysis was carried out with the ArrayTrack software (National Center for Toxicological Research/FDA, Jefferson, AR, USA) using SAM algorithm.

[15] = 24 h, read-out: Calculated IC50 after single treatment for 24 h
[16] = 96 h, read-out: Calculated IC50 after daily treatment for 96 h
[17] = MTS, 24 h, read-out: Calculated IC50 after single treatment for 24 h
[18] = Mus musculus, 24 h, read-out: Calculated IC50 after single treatment for 24 h
[19] = Mus musculus, 96 h, read-out: Calculated IC50 after daily treatment for 96 h

CSc1nc(NCCc2ccc(Cl)cc2)c2cnn(CC(Cl)c3ccccc3)c2n1 (stereo not shown) [Si57]
IC50 [1, 15]: 77.1 ± 7.5 µM | IC50 [1, 16]: 6.8 ± 1.5 µM | IC50 [2, 15]: 43.4 ± 8 µM | IC50 [2, 16]: 8.3 ± 0.4 µM | IC50 [3, 15]: 77.2 ± 7.5 µM | IC50 [3, 16]: 25.5 ± 4.8 µM | IC50 [4, 15]: 26.6 ± 4.2 µM | IC50 [4, 16]: 5.8 ± 0.4 µM | IC50 [5, 17]: 14.6 ± 0.7 µM | IC50 ([5]; MTS, 96 h, read-out: Calculated IC50 after daily treatment for 96 h): 4.8 ± 0.6 µM | IC50 [6, 15]: 19.6 ± 1.5 µM | IC50 [6, 16]: 9.1 µM | IC50 [7, 15]: 24.8 ± 0.2 µM | IC50 [7, 16]: 5.4 ± 0.3 µM | Cells in G1 phase [8]: 41.7% | Cells in G2 phase [8]: 18.1% | Cells in S phase [8]: 40.2% | Cells in G1 phase [9]: 70.5% | Cells in G2 phase [9]: 5.5% | Cells in S phase [9]: 24% | Cells in G1 phase [10]: 63.9% | Cells in G2 phase [10]: 8.1% | Cells in S phase [10]: 28% | Change of caspase-3/7 activity in all cell lines [11]: declined | Cells in G1 phase [12]: 44.1% | Cells in G2 phase [12]: 12.2% | Cells in S phase [12]: 43.7%

Clc1cccc(Nc2nc(SC3CCCC3)nc3c2cnn3CC(Cl)c2ccccc2)c1 (stereo not shown) [Si135]
Actin protein expression [13]: 68 | Cdc2-p34 protein expression [13]: 9 | EGFR Y992-p protein expression [13]: 8 | EGFR Y1045-p protein expression [13]: 28 | EGFR protein expression [13]: 261 | EPS15 protein expression [13]: 48 | FAK protein expression [13]: 130 | STAT5 protein expression [13]: 61 | c-Abl protein expression [13]: 34 | c-Fos protein expression [13]: 43 | c-Src Y416-p protein expression [13]: 16 | c-Src protein expression [13]: 78 | hnRNP-K protein expression [13]: 70 | p38 protein expression [13]: 51 | p53 protein expression [13]: 19 | IC50 ([1]; Homo sapiens, Caco-2, 24 h, read-out: Calculated IC50 after single treatment for 24 h): 64.6 ± 10.3 µM | IC50 ([1]; Homo sapiens, Caco-2, 96 h, read-out: Calculated IC50 after daily treatment for 96 h): 2.1 ± 0.2 µM | IC50 ([2]; Homo sapiens, A549, 24 h, 24 h, read-out: Calculated IC50 after single treatment for 24 h): 26.1 ± 2.6 µM | IC50 ([2]; Homo sapiens, A549, 96 h, 96 h, read-out: Calculated IC50 after daily treatment for 96 h): 2.7 µM | IC50 ([3]; Homo sapiens, 24 h, read-out: Calculated IC50 after single treatment for 24 h): 64.6 ± 10.3 µM | IC50 ([3]; Homo sapiens, 96 h, read-out: Calculated IC50 after daily treatment for 96 h): 20.9 ± 1.8 µM | IC50 [4, 18]: 10 ± 2.2 µM | IC50 [4, 19]: 3.8 ± 0.2 µM | IC50 ([5]; Mus musculus, MTS, 24 h, read-out: Calculated IC50 after single treatment for 24 h): 14.7 ± 0.6 µM | IC50 ([5]; Mus musculus, MTS, 96 h, read-out: Calculated IC50 after daily treatment for 96 h): 3.5 ± 0.2 µM | IC50 [6, 18]: 13 ± 2.2 µM | IC50 [6, 19]: 3.6 ± 0.2 µM | IC50 [7, 18]: 25.5 ± 3.8 µM | IC50 [7, 19]: 4.1 ± 0.4 µM | Genes regulated in common in A549 and CaCo2 (number) ([14]; Fig. 4A): 13 | Significantly regulated genes (number) ([14]; IC50 concentration, 96 h, cell line not stated): approx. 150 | Cells in G1 phase [8]: 42.1% | Cells in G2 phase [8]: 12.1% | Cells in S phase [8]: 45.8% | Cells in G1 phase [9]: 50.8% | Cells in G2 phase [9]: 8.6% | Cells in S phase [9]: 40.6% | Cells in G1 phase [10]: 58% | Cells in G2 phase [10]: 9.5% | Cells in S phase [10]: 32.5% | Cells in G1 phase [12]: 54.5% | Cells in G2 phase [12]: 12.6% | Cells in S phase [12]: 33%

Fc1ccccc1CNc1ncnc2c1cnn2CC(Cl)c1ccc(Br)cc1 (stereo not shown) [Si162]
Actin protein expression [13]: 77 | Cdc2-p34 protein expression [13]: 12 | EGFR Y992-p protein expression [13]: 20 | EGFR Y1045-p protein expression [13]: 60 | EGFR protein expression [13]: 535 | EPS15 protein expression [13]: 56 | FAK protein expression [13]: 96 | STAT5 protein expression [13]: 35 | c-Abl protein expression [13]: 46 | c-Fos protein expression [13]: 58 | c-Src Y416-p protein expression [13]: 82 | c-Src protein expression [13]: 86 | hnRNP-K protein expression [13]: 59 | p38 protein expression [13]: 48 | p53 protein expression [13]: 73 | IC50 [1, 15]: > 100 µM | IC50 [1, 16]: 1.9 ± 0.2 µM | IC50 [2, 15]: 21.9 ± 2.7 µM | IC50 [2, 16]: 5 µM | IC50 [3, 15]: 34.7 ± 3.4 µM | IC50 [3, 16]: 14.5 µM | IC50 [4, 15]: 13.1 ± 1.1 µM | IC50 [4, 16]: 6.4 ± 0.4 µM | IC50 ([5]; 96 h, read-out: IC50 (MTS) after treatment for 96 h): 0.8 µM | IC50 [5, 17]: 11.6 ± 1.3 µM | IC50 [6, 15]: 8.3 ± 1.2 µM | IC50 [6, 16]: 6.4 ± 0.5 µM | IC50 [7, 15]: 17.6 ± 1.2 µM | IC50 [7, 16]: 2.1 ± 0.2 µM | Commonly regulated genes in both murine cell lines (number) ([14]; A2C12 and GammaA3, Fig. 4D): 259 | Genes regulated in common amongst all three human cell lines (number) ([14]; A549, CaCo2, HepG2, Fig. 4B): two | Cells in G1 phase [8]: 41.3% | Cells in G2 phase [8]: 12.3% | Cells in S phase [8]: 46.4% | Cells in G1 phase [9]: 8.5% | Cells in G2 phase [9]: up to 72.3% | Cells in S phase [9]: 19.2% | Cells in G2 phase ([9]; listed as Si 162): 72.3% | Cells in G1 phase [10]: 17.8% | Cells in G2 phase [10]: 63% | Cells in S phase [10]: 19.3% | Change of caspase-3/7 activity in all cell lines [11]: increased
